Consider 1 compound from patent publication US20140199346A1 (priority 2009, published 2014).

“Also recorded” adds a separate entry of the source.

The subject of assay [1] is H1N1 subtype of influenza virus A/PR/8. Kind of assay: Test Example 4: virus titer in lung of mouse (plaque count on MDCK cells). It counts as in vivo, mice. Here is the method: In order to study mechanisms of the effects shown in Test Examples 1 to 3, influences on a virus titer in the lung of a mouse infected with the influenza virus were examined. Specifically, test solutions were prepared for the test groups and control group shown in Table 7 below, respectively, and orally administered, and the virus titer in the lung of each mouse infected with the influenza virus was examined. It should be noted that the phrase “dead bacterial cells of EF lactic acid bacterium” in the table means a commercially available heat-sterilized bacterial cell powder of Enterococcus faecalis.
That is, the mice were infected with the influenza virus in the same manner as in Test Example 2 except that the period after the beginning of administration of the test solutions was changed to one week. […] In the case of Test group 14, the test was carried out in the same manner as in Test group 13 except that the dead bacterial cells of the lactic acid bacterium (6.7×10^9 cells) were used in combination as a suspension in 200 μL of the culture solution of Aureobasidium. In addition, in the case of Test group 15, to which only oseltamivir was administered, in order to carry out comparison with the maximum effect of administration of only oseltamivir, oseltamivir was orally administered continuously every day (morning and evening, in an amount of 200 μL per dose) after virus infection.
The virus titer in the lung of a mouse was measured as follows.
On day 1, day 3, and day 5 of virus infection, three mice of each group were dissected, and the lung washed with PBS to remove blood was collected. The collected lung was crushed, and the tissue was separated as a cell suspension and then centrifuged at 5,000 rpm for 10 minutes. The supernatant was collected and used as a sample. The collected sample was diluted serially in 10-fold steps with 1×MEM to concentrations ranging from 10^−1 to 10^−6. On the other hand, MDCK cells were cultured from the previous day, and a state in which the MDCK cells (one sample: one 12-well plate) were proliferated to confluency was confirmed. Then, the medium of the MDCK cells was removed, and the cells were washed with 1 ml of PBS. PBS used for washing was removed, and each of the samples diluted serially was added in an amount of 100 μL, and then the plate was allowed to stand still in a 5% CO2 incubator (37° C.) for one hour. During incubation, the plate was shaken every 15 minutes to prevent the cells from drying. Subsequently, 2×MEM was mixed with an equal amount of a 1.6% agar solution, and trypsin was added so as to reach a final concentration of 0.0005% to prepare a MEM-agar solution. The solution was warmed in a water bath at 42° C. One hour later, the virus solution was removed, and the cells were washed with 1 ml of PBS. The prepared MEM-agar solution was added to each well in an amount of 1 ml, and the plate was allowed to stand for a while until the agar was solidified. After that, the cells were cultured in a 5% CO2 incubator (35° C.), and 48 hours later, the number of plaques was counted.

Assay [2] has as its system T cells. The arrangement: species or system mice. As to conditions: mouse, in vivo.
The test system of assay [3] is NK cells. The arrangement: species or system mice. As to conditions: mouse, in vivo.
For assay [4], the system named is H1N1 subtype of influenza virus A/PR/8. The assay can be described thus: Test Example 2: oral administration to mice infected with influenza virus (2,000 pfu/mouse), body weights and survival rates. The assay is classed as in vivo. Here is the method: It should be noted that the phrase “dead bacterial cells of EF lactic acid bacterium” in the table means a commercially available heat-sterilized bacterial cell powder of Enterococcus faecalis.
Infection of mice used as experimental animals with the influenza virus was carried out so that the virus titer was twice as large as that in Test Example 1. That is, the infection was carried out in the same manner as in Test Example 1 except that a diluted virus solution having a virus titer of 4×10^4 pfu/mL was injected from both nasal cavities alternately using a micropipette in an amount of 50 μL (2,000 pfu/mouse).
That is, in the case of each of Test groups 3 to 5 and Control group 2, the test solution was orally administered every day during the test period by the sonde method once a day in an amount of 200 μL. […]
The body weights of the mice after infection with the virus were measured every day, and transition of the body weights and survival rates were determined.

Assay [5] shares this test system. The assay can be described thus: Test Example 1: oral administration to mice infected with influenza virus (1,000 pfu/mouse), body weights and survival rates. It counts as in vivo. Here is the method: Test solutions were prepared for the test groups and control group shown in Table 1 below, respectively, and effects of oral administration of the solutions on mice infected with an influenza virus were examined. It should be noted that “Tamiflu dry syrup 3%” (product name, Chugai Pharmaceutical Co., Ltd.) was used as an anti-influenza drug oseltamivir.
As experimental animals, mice (C57BL/6NJc1, male, 6 weeks old) were used, and as the influenza virus, H1N1 subtype of influenza virus A/PR/8 was used. Infection of the mice with the influenza virus was carried out as follows. That is, the mice were placed in a container filled with isoflurane, and taken out after confirming that their breathing became slow. […] After confirming that the mice recovered from anesthesia, the mice were returned to breeding cages.
It should be noted that the culture solution of Aureobasidium (Test group 1) was orally administered every day during the test period by a sonde method once a day in an amount of 200 μL. […] The body weights of the mice after infection with the virus were measured every day, and transition of the body weights and survival rates were determined.

On to `CCOC(=O)C1=C[C@@H](OC(CC)CC)[C@H](NC(C)=O)[C@@H](N)C1` [Test group 2, oseltamivir], for which the “Comparison of virus titers (virus titer for administration of PBS on each day after infection is defined as 1)” value (from here on “Comparison of virus titers”) in assay [1] (1 day after infection) is reported as 1/5. In assay [1] (3 days after infection), the “Comparison of virus titers” value is 1/53. The “Comparison of virus titers” value in assay [1] (5 days after infection) is reported as 1/89. Moreover, the “mouse lung virus titer” value in assay [1] (day 1 of infection) was 5.88 log10 PFU. Further, in assay [1] (day 3 of infection), the “increase of lung virus titer as compared to day 1 of infection” value stood at 15.4 fold and the “mouse lung virus titer” value is 6.83 log10 PFU. In addition, in assay [1] (day 5 of infection), the “increase of lung virus titer as compared to day 1 of infection” value was 122 fold and the “mouse lung virus titer” value was determined as 7.76 log10 PFU. In assay [2], the “number of activated T cells relative to Control group 5” value is reported as “about one-third” and the “ratio of activated T cells in the T cells” value amounted to 7.3%. In assay [3], the “ratio of NK cells in viable cells in the lung” value is listed as “about 1.8%”, the “ratio of NK cells in viable cells relative to Control group” value is on record as “about one-quarter” and the “ratio of activated NK cells in the NK cells” value stood at 46.2%. The “body weights decreased by up to” value in assay [4] (mice whose body weight decreased) is given as “about 34%”. Also, in assay [4] (oral, until day 17 of infection), the “mice died during the test period” value came to 50%. Besides, the survival rate in assay [5] (1,000 pfu/mouse, oral, until day 14 of infection, 3 mice) stood at 100%. Besides, the “body weight increase at the end of the test (day 14 of infection) as compared to the first day of infection” value in assay [5] (individual mouse, 1,000 pfu/mouse) was found to be 5%. Besides, in assay [5] (individual mouse, after recovery, day 14 of infection), the “body weight at completion of the test” value is listed as “same body weight as that on the first day of infection”. In assay [5] (individual mouse, day 14 of infection), the “body weight decrease at completion of the test as compared to the first day of infection” value worked out at 3%. Also, the “body weight decreased by up to” value in assay [5] (individual mouse, maximum loss after infection, 1,000 pfu/mouse) is on record as “about 20%; also recorded: about 25%”.
